According to article PMC10222548, “Semisynthesis, Biological Evaluation and Molecular Docking Studies of Barbatic Acid Derivatives as Novel Diuretic Candidates” (Molecules, 2023):
Where “and” joins values, the source holds several entries; their conditions need not be identical. Equal entries are not always repeated.

Key:
[1] = system: Cl^− transport, MDCK cells; assay: In vitro diuretic activity: Cl^− transport inhibition, Transwell chamber seeded with MDCK cells; format: cell-based, canine; conditions: Canis lupus familiaris; 100 μmol/L, MDCK cells in Transwell; mean ± SD of three replicates; negative = promotion; read-out: Transport Inhibition Rate (%) Cl^−
Excerpt: (§1) The traditional methods for screening diuretic drugs are mostly in vivo experiments with mice, which have a long experimental cycle and are not suitable for screening massive compounds. As we know, the generation and excretion of urine involve two processes: glomerular filtration and tubular reabsorption. Reabsorption refers to the process in which the renal tubular epithelial cells transport water and certain solutes from the tubular fluid (urine) partially or entirely back into the bloodstream. Then, 99% of the water in the original urine filtered by the glomerulus is reabsorbed, and the transport of Na^+ and Cl^− plays an important role in this process. Thiazide and furosemide diuretics exert their diuretic effects by inhibiting the transport of Na^+ and Cl^−, which affects the tubular reabsorption of the original urine. Based on this principle, we established a new type of cell screening model for diuretic active drugs. Madin–Darby canine kidney (MDCK) cells were inoculated into a Transwell chamber to simulate the renal tubules. This cell model could transport and absorb external NaCl, simulating the reabsorption phenomenon. […] The effectiveness of this model was confirmed by the validation of hydrochlorothiazide, which is a commercially available diuretic drug and could inhibit the transport of Na^+ and Cl^− in renal tubules.
(§2) Generally, the transport of Na^+ and Cl^− plays an important role in glomerular filtration and tubular reabsorption. […] For example, inhibition rates of transport of 6a and 6c were over 30%, and had better inhibitory ability than barbatic acid. […] When ethyl, propyl, and benzyl were substituted on R^1, the introduction of any group could not enhance the inhibitory activity of barbatic acid, such as 6h–u and 6j′–6p′.
(§3) Log-phase MDCK cells were seeded in the upper chambers of Transwell plates (4 × 10^4 cells/well), and 800 µL of complete culture medium was added to the lower chambers. After 24 h of incubation at 37 °C, the electrical resistance of the upper chamber cells was measured one by one (R = (Rcell − Rblank) × 0.04π). When the electrical resistance of the upper chamber cells reached ≥300 Ω cm^2, the upper chamber medium was removed and replaced with the drug solution. The blank group (given normal saline), the experimental group (1, 6a–6p′, 100 μmol/L), and the hydrochlorothiazide group (100 μmol/L) were set, and each well was treated with 100 µL of the corresponding solution. The cells were then further incubated for 24 h. After that, the upper and lower chamber fluids were removed, and 200 µL of NaCl solution (15 mg/mL) was added to the upper chamber, while 800 µL of DMEM was added to the lower chamber for continued incubation. At 0.5, 1, 2, and 3 h, 50 µL of the lower chamber fluid was taken and the OD values were measured using Na^+ and Cl^− detection kits. The transport inhibition rate (%) was calculated as follows: transport inhibition rate (%) = (ODblank − ODexperimental)/ODblank × 100%.

[2] = system: C2O4^2− transport, MDCK cells; assay: In vitro litholytic activity: C2O4^2− transport inhibition, Transwell chamber with MDCK cells; format: cell-based, canine; conditions: Canis lupus familiaris; 100 μmol/L, MDCK cells in Transwell; mean ± SD of three replicates; read-out: Transport Inhibition Rate (%) C2O4^2−
Procedure: (§4) On the other hand, all compounds had little inhibitory effect on Ca^2+ transport. The structure–activity relationships (SARs) were also observed. […] On the other hand, the introduction of the benzyl group to the R^1 or R^2 of barbatic acid could not lead to more promising compounds, such as 6a, 6n, 6u, 6b′, and 6i′–p′.
(§5) Logarithmic-phase DMCK cells were inoculated in the upper chamber of a Transwell plate (4 × 10^4 cells/well). Then, 800 µL of complete culture medium was added to the lower chamber, and the cells were incubated for 24 h until they adhered to the wall. The resistance value of the upper chamber cells was measured one by one at 37 °C (R = (Rcell − Rblank) × 0.04π). When the resistance value of the upper chamber cells was ≥300 Ω cm^2, the upper chamber liquid was discarded for drug administration. A control group (given physiological saline) and an experimental group (1, 6a–6p′, 100 μmol/L) were set up, and 100 µL of each drug was administered per well, followed by continued incubation for 24 h. Then, the upper and lower chamber liquids were discarded, and 200 µL of CaC2O4 (30 mmol/L) solution was added to the upper chamber, and 800 µL of PBS solution was added to the lower chamber for continued incubation. At 0.5, 1, 2, and 3 h, 50 µL of the lower chamber liquid was taken and then tested using the Ca^2+ and C2O4^2− detection kits and the following detection methods. The transport inhibition rate (%) = (ODblank − ODexperimental)/ODblank × 100%.

[3] = system: Ca^2+ transport, MDCK cells; assay: In vitro litholytic activity: Ca^2+ transport inhibition, Transwell chamber with MDCK cells; format: cell-based, canine; conditions: Canis lupus familiaris, 100 μmol/L, mean ± SD of three replicates, read-out: Transport Inhibition Rate (%) Ca^2+
Procedure: as §4, §5

[4] = system: Na^+ transport, MDCK cells; assay: In vitro diuretic activity: Na^+ transport inhibition, Transwell chamber seeded with MDCK cells; format: cell-based, canine; conditions: for inhibition at 100 µM: Canis lupus familiaris, MDCK, read-out: Transport Inhibition Rate (%) Na^+; for inhibition at 100 µM / Transport Inhibition Rate (%) Na^+: 100 μmol/L, MDCK cells in Transwell, mean ± SD of three replicates, negative = promotion
Excerpt: as §1, §2, §3

[5] = system: MDCK cells; assay: MTT cytotoxicity assay on MDCK cells; format: cell-based, canine; conditions: Canis lupus familiaris, 100 μmol/L, 24 h, mean ± SD of three replicates, read-out: Growth Inhibition Rate (%)
Procedure: First, we used the MTT method to perform cytotoxicity of barbatic acid derivatives (1, 6a–6p′) on MDCK cells at the concentration of 100 μmol/L, and the results are shown in Table 1.
The MTT assay was used to evaluate the cytotoxicity of the target compounds on DMCK cells. Logarithmic-growth-phase DMCK cells were seeded in a 96-well plate (10^4 cells/well) and incubated in a cell culture incubator for 24 h. The culture medium was then removed and replaced with a drug-containing medium for the treatment groups (1, 6a–6p′, 100 μmol/L), normal saline for the control group, or hydrochlorothiazide (100 μmol/L) for the positive control group. Each well was treated with 100 µL of the respective solution and incubated for an additional 24 h. The culture medium was then removed and replaced with a DMEM solution containing 20 µL of MTT (5 mg/mL). After incubating for 4 h, the liquid in each well was removed and replaced with 150 µL of DMSO, which was shaken for 10 min to ensure thorough mixing. The absorbance at 490 nm was measured to determine the optical density (OD) of each well. Cell growth inhibition rate (%) = (ODBlank − ODExperimental)/ODBlank × 100%.

## Cc1cc(OCc2ccccc2)c(C)c(O)c1C(=O)Oc1cc(C)c(C(=O)OCC#N)c(O)c1C [6o′, 4-((cyanomethoxy)carbonyl)-3-hydroxy-2,5-dimethylphenyl 4-(benzyloxy)-2-hydroxy-3,6-dimethylbenzoate]
[1]
  inhibition at 100 µM: -24 ± 1.5%
[2]
  inhibition at 100 µM: 2.03 ± 1.07%
other
  melting point: 151 to 155 °C
[3]
  inhibition at 100 µM: -1.82 ± 0.23%
[4]
  inhibition at 100 µM: -3.28 ± 0.75%
[5]
  inhibition at 100 µM: < 0%

## Cc1cc(OCc2ccccc2)c(C)c(O)c1C(=O)Oc1cc(C)c(C(=O)OCc2ccccc2)c(O)c1C [6p′, benzyl 4-(4-(benzyloxy)-2-hydroxy-3,6-dimethylbenzoyloxy)-2-hydroxy-3,6-dimethylbenzoate]
[1]
  inhibition at 100 µM: -5.43 ± 0.85%
[2]
  inhibition at 100 µM: 7.16 ± 1.56%
other
  melting point: 153 to 157 °C
[3]
  inhibition at 100 µM: -3.34 ± 0.26%
[4]
  inhibition at 100 µM: 16.3 ± 0.1%
[5]
  inhibition at 100 µM: < 0%

## COc1cc(C)c(C(=O)Oc2cc(C)c(C(=O)OCc3ccccc3)c(O)c2C)c(O)c1C [Compound 6a, Benzyl 2-hydroxy-4-((2-hydroxy-4-methoxy-3,6-dimethylbenzoyl)oxy)-3,6-dimethylbenzoate]
[1]
  inhibition at 100 µM: 8.76 ± 0.25%
[2]
  inhibition at 100 µM: -16.6 ± 0.37%
other
  melting point: 113 to 115 °C
[3]
  inhibition at 100 µM: -7.98 ± 0.17%
[4]
  Transport Inhibition Rate (%) Na^+: 33.51 ± 5.95%
  inhibition at 100 µM: > 30%
[5]
  inhibition at 100 µM: < 0%

## COC(=O)c1c(C)cc(OC(=O)c2c(C)cc(OC)c(C)c2O)c(C)c1O [Compound 6b, 3-hydroxy-4-(methoxycarbonyl)-2,5-dimethylphenyl 2-hydroxy-4-methoxy-3,6-dimethylbenzoate]
[1]
  inhibition at 100 µM: 5.71%
[2]
  inhibition at 100 µM: -4.25 ± 1.08%
other
  melting point: 177 to 180 °C
[3]
  inhibition at 100 µM: -5.14 ± 0.31%
[4]
  Transport Inhibition Rate (%) Na^+: less than 10% and −9.31 ± 7.15%
[5]
  inhibition at 100 µM: < 0%

## CCOC(=O)c1c(C)cc(OC(=O)c2c(C)cc(OC)c(C)c2O)c(C)c1O [Compound 6c, 4-(ethoxycarbonyl)-3-hydroxy-2,5-dimethylphenyl 2-hydroxy-4-methoxy-3,6-dimethylbenzoate]
[1]
  inhibition at 100 µM: -7.56 ± 0.35%
[2]
  inhibition at 100 µM: 1.01 ± 2.03%
other
  melting point: 175 to 178 °C
[3]
  inhibition at 100 µM: -2.3 ± 0.34%
[4]
  Transport Inhibition Rate (%) Na^+: 47.18 ± 0.80%
  inhibition at 100 µM: > 30%
[4]; evaluated at 1, 2, and 3 h (Figure 3)
  Na^+ transport inhibition rate at 1, 2, and 3 h: above 20%
[5]
  inhibition at 100 µM: < 0%

## CCCOC(=O)c1c(C)cc(OC(=O)c2c(C)cc(OC)c(C)c2O)c(C)c1O [Compound 6d, 3-hydroxy-2,5-dimethyl-4-(propoxycarbonyl)phenyl 2-hydroxy-4-methoxy-3,6-dimethylbenzoate]
[1]
  inhibition at 100 µM: -9.21 ± 0.45%
[2]
  inhibition at 100 µM: -6.69 ± 8.67%
other
  melting point: 146 to 149 °C
[3]
  inhibition at 100 µM: -9.93 ± 0.19%
[4]
  inhibition at 100 µM: 8.04 ± 0.4%
[5]
  inhibition at 100 µM: 3.04 ± 0.3%

## COc1cc(C)c(C(=O)Oc2cc(C)c(C(=O)OC(C)C)c(O)c2C)c(O)c1C [Compound 6e, 3-hydroxy-4-(isopropoxycarbonyl)-2,5-dimethylphenyl 2-hydroxy-4-methoxy-3,6-dimethylbenzoate]
[1]
  inhibition at 100 µM: -3.13 ± 0.65%
[2]
  inhibition at 100 µM: -2.05 ± 3%
other
  melting point: 135 to 138 °C
[3]
  inhibition at 100 µM: -3.66 ± 0.27%
[4]
  inhibition at 100 µM: -0.88 ± 4.35%
[5]
  inhibition at 100 µM: < 0%

## C=CCOC(=O)c1c(C)cc(OC(=O)c2c(C)cc(OC)c(C)c2O)c(C)c1O [Compound 6f, allyl 2-hydroxy-4-(2-hydroxy-4-methoxy-3,6-dimethylbenzoyloxy)-3,6-dimethylbenzoate]
[1]
  inhibition at 100 µM: -0.61 ± 0.6%
[2]
  inhibition at 100 µM: 6.89 ± 1.5%
other
  melting point: 155 to 157 °C
[3]
  inhibition at 100 µM: -3.66 ± 0.25%
[4]
  inhibition at 100 µM: -0.5 ± 0.1%
[5]
  inhibition at 100 µM: < 0%

## COc1cc(C)c(C(=O)Oc2cc(C)c(C(=O)OCC#N)c(O)c2C)c(O)c1C [Compound 6g]
[1]
  inhibition at 100 µM: -27.7 ± 1%
[2]
  inhibition at 100 µM: -12.6 ± 2.88%
other
  melting point: 184 to 187 °C
[3]
  inhibition at 100 µM: -8.61 ± 0.19%
[4]
  inhibition at 100 µM: 12.1 ± 1.3%
[5]
  inhibition at 100 µM: 0.12 ± 0.1%
